Twelve compounds from patent publication US12583839B2, “PD-L1 antagonist compound” (ADLAI NORTYE BIOPHARMA CO., LTD., priority 2019, dated 2026) can be followed below.

For this assay, the target named is T1, PD-1/PD-L1 (Homo sapiens, UniProt Q9NZQ7).
T1 construct: 60535 (PD-1/NFAT-Reporter-Jurkat); host or cells: CHO cells expressing PD-L1; Jurkat cells expressing PD-1
Put plainly: Detection of biological activity of PD-1/PD-L1 signaling inhibition at the cellular level (NFAT luciferase reporter, PD-1/NFAT-Reporter-Jurkat cells co-cultured with TCR activator/PD-L1-CHO cells). It is filed as cell-based. As to conditions: PD-1/NFAT-Reporter-Jurkat + TCR activator/PD-L1-CHO co-culture, 6 hours; Atezolizumab as positive control. A digest of the protocol: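 CHO cells expressing PD-L1 and a TCR activator were seeded overnight at 37° C, pre-treated with compound for 30 minutes, then co-cultured 6 hours with Jurkat cells carrying PD-1 and an NFAT-luciferase reporter. Luminescence was read, and inhibition % was normalised between 0.1% DMSO and about 10 nM atezolizumab controls.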

T1 sequence (Q9NZQ7 19-290): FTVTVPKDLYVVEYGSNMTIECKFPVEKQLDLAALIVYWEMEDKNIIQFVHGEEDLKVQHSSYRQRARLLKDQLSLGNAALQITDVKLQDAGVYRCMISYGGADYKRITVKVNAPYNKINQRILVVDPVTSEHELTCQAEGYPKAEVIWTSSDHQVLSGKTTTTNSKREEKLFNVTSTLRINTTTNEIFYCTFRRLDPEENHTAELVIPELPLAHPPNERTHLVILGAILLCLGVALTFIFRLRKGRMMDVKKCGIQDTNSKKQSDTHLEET

With `COc1cc(Cn2ncc3c(-c4cccc(-c5cc(F)c(CNC[C@@H]6CCC(=O)N6)c(OC)c5)c4C)cccc32)c(Cl)cc1CN(C)C12CCC(C(=O)O)(CC1)CC2` [Compound 161], the 50% effective concentration (EC50) was determined as 75 nM.

On to `COc1cc(Cn2ncc3c(-c4cccc(-c5cc(F)c(CNC[C@@H]6CCC(=O)N6)c(OC)c5)c4Cl)cccc32)c(Cl)cc1CN(C)[C@H]1CC[C@H](O)CC1` [Compound 162], for which the half-maximal effective concentration (EC50) was found to be 44 nM.

On to `COc1cc(-c2cccc(-c3cccc4c3cnn4Cc3nc(OC)c(CN(C)[C@H]4CC[C@H](C(=O)O)CC4)cc3Cl)c2Cl)cc(F)c1CNC[C@@H]1CCC(=O)N1` [Compound 163], for which the EC50 amounted to 26 nM.

`COc1cc(Cn2ncc3c(-c4cccc(-c5ccc(CNC[C@@H]6CCC(=O)N6)c(OC)n5)c4C)cccc32)c(Cl)cc1CN(C)C12CCC(C(=O)O)(CC1)CC2` [Compound 164]: the EC50 was 105 nM.

Take `COc1cc(-c2cccc(-c3cccc4c3cnn4Cc3nc(OC)c(CN(C)C45CCC(C(=O)O)(CC4)CC5)cc3Cl)c2C)cc(F)c1CNC[C@@H]1CCC(=O)N1` [Compound 166]: the EC50 is 49 nM.

For `COc1cc(Cn2ncc3c(-c4cccc(-c5cc(F)c(CNC[C@H]6CCC(=O)N6)c(OC)c5)c4Cl)cccc32)c(Cl)cc1CN(C)C12CCC(C(=O)O)(CC1)CC2` [Compound 167], the EC50 stood at 53 nM.

Consider `COc1cc(Cn2ncc3c(-c4cccc(-c5cc(F)c(CNC[C@@H]6CCCC(=O)N6)c(OC)c5)c4Cl)cccc32)c(Cl)cc1CN(C)C12CCC(C(=O)O)(CC1)CC2` [Compound 168], for which the EC50 turned out to be 69 nM.

As to `COc1nc(-c2cccc(-c3cccc4c3cnn4Cc3nc(OC)c(CN(C)C45CCC(C(=O)O)(CC4)CC5)cc3Cl)c2C)ccc1CNC[C@@H]1CCC(=O)N1` [Compound 169], the EC50 amounted to 59 nM.

In the case of `COc1cc(Cn2ncc3c(-c4cccc(-c5cnc(CNC[C@@H]6CCC(=O)N6)c(OC)n5)c4C)cccc32)c(Cl)cc1CN(C)C12CCC(C(=O)O)(CC1)CC2` [Compound 170], the EC50 came to 265 nM.

On to `COc1cc(Cn2ncc3c(-c4cccc(-c5cc(F)c(CNC[C@@H]6CCC(=O)N6)c(OC)c5)c4Cl)cccc32)c(Cl)cc1CN(CCO)[C@H]1CC[C@H](C(=O)O)CC1` [Compound 171], for which the EC50 was determined as 40 nM.

With `COc1cc(-c2cccc(-c3cccc4c3cnn4Cc3nc(OC)c(CN(C)C45CCC(C(=O)O)(CC4)CC5)cc3Cl)c2Cl)cc(F)c1CNC[C@@H]1CCCC(=O)N1` [Compound 172], the EC50 is 32 nM.

Turning to `COc1cc(-c2cccc(-c3cccc4c3cnn4Cc3cc(N)c(CN(C)[C@H]4CC[C@H](C(=O)O)CC4)cc3Cl)c2Cl)cc(F)c1CNC[C@@H]1CCC(=O)N1` [Compound 173], the EC50 is 222 nM.
